From US11964953B2, “Substituted aminothiazoles as DGKzeta inhibitors for immune activation” (Bayer Aktiengesellschaft, priority 2020, dated 2024)

These compounds were tested against human DGKζ (Homo sapiens (Human), UniProt Q13574) (assay: Human DGKζ kinase activity inhibition assay (ADP-Glo)). Details: in vitro human DGKζ kinase activity inhibition assay; read-out: IC50.
Type: biochemical
Method in brief: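 Enzyme was C-terminally FLAG-tagged full-length recombinant human DGKζ from baculovirus-infected insect cells. Substrate preparation used octyl-β-D-glucopyranoside in 50 mM MOPS pH 7.4 with sonication; ADP generated was quantified by ADP-Glo luminescence as activity measure.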

human DGKζ, sequence (Q13574 other isoform, or with tags, fused parts or gaps): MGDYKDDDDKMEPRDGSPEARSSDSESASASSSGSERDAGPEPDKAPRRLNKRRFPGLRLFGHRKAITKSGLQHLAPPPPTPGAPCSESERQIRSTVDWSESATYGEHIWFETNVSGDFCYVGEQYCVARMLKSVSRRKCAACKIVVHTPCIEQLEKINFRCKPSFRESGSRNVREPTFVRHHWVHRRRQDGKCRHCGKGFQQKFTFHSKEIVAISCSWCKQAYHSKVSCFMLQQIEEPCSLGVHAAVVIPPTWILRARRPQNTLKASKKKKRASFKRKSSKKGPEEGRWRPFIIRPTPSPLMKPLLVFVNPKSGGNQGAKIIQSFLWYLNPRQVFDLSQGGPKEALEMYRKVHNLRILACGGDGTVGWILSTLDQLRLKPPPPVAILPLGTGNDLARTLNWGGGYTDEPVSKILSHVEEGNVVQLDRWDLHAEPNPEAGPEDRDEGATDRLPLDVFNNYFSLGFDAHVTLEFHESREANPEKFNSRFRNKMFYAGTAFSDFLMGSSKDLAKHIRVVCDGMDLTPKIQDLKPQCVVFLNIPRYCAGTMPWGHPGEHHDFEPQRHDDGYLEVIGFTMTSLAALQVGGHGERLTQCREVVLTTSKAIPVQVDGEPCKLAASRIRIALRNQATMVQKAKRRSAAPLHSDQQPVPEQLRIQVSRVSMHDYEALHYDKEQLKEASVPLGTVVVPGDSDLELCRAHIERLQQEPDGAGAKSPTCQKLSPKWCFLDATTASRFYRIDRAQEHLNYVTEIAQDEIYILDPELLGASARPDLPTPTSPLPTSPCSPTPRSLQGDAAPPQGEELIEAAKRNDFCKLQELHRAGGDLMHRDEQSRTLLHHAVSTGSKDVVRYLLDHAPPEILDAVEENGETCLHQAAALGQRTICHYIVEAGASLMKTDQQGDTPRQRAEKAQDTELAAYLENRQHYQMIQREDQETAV

IC50	SMILES
1780 nM	CC(C(N)=O)N(c1ccc(F)c(F)c1)c1nc(N)c(C(=O)c2ccc(C(F)(F)F)nc2)s1 (single isomer, unassigned) [Example 53.2, 2-(N-[4-amino-5-[6-(trifluoromethyl)pyridine-3-carbonyl]thiazol-2-yl]-3,4-difluoro-anilino)propanamide]
6 nM	Cc1nc(N(c2ccc(F)c(F)c2)C(C)C(N)=O)sc1C(=O)c1ccc(OC(F)F)cc1 (single isomer, unassigned) [Example 55.1, 2-(N-[5-[4-(difluoromethoxy)benzoyl]-4-methyl-thiazol-2-yl]-3,4-difluoro-anilino)propanamide]
835 nM	Cc1nc(N(c2ccc(F)c(F)c2)C(C)C(N)=O)sc1C(=O)c1ccc(OC(F)F)cc1 (single isomer, unassigned) [Example 55.2, 2-(N-[5-[4-(difluoromethoxy)benzoyl]-4-methyl-thiazol-2-yl]-3,4-difluoro-anilino)propanamide]
50.5 nM	CC(C(N)=O)N(c1ccc(Cl)c(F)c1)c1nc(N)c(C(=O)c2ccncc2)s1 (single isomer, unassigned) [Example 56.1, 2-(N-[4-amino-5-(pyridine-4-carbonyl)thiazol-2-yl]-4-chloro-3-fluoro-anilino)propanamide]
137 nM	CC(C(N)=O)N(c1ccc(Cl)cc1)c1nc(N)c(C(=O)c2ccncc2)s1 (single isomer, unassigned) [Example 57.1, 2-(N-[4-amino-5-(pyridine-4-carbonyl)thiazol-2-yl]-4-chloro-anilino)propanamide]
14600 nM	CC(C(N)=O)N(c1ccc(Cl)cc1)c1nc(N)c(C(=O)c2ccncc2)s1 (single isomer, unassigned) [Example 57.2, 2-(N-[4-amino-5-(pyridine-4-carbonyl)thiazol-2-yl]-4-chloro-anilino)propanamide]
8 nM	COc1ccc(C(=O)c2sc(N(c3ccc(Cl)cc3)C(C)C(N)=O)nc2N)cc1 (single isomer, unassigned) [Example 58.1, 2-(N-[4-amino-5-(4-methoxybenzoyl)thiazol-2-yl]-4-chloro-anilino)propanamide]
1050 nM	COc1ccc(C(=O)c2sc(N(c3ccc(Cl)cc3)C(C)C(N)=O)nc2N)cc1 (single isomer, unassigned) [Example 58.2, 2-(N-[4-amino-5-(4-methoxybenzoyl)thiazol-2-yl]-4-chloro-anilino)propanamide]
424 nM	COc1ccc(C(=O)c2sc(N(c3ccc(Cl)c(F)c3)C(C)C(N)=O)nc2N)cc1 (single isomer, unassigned) [Example 59.2, 2-(N-[4-amino-5-(4-methoxybenzoyl)thiazol-2-yl]-4-chloro-3-fluoro-anilino)propanamide]
5180 nM	CC(C(N)=O)N(c1ccc(F)cc1)c1nc(N)c(C(=O)c2ccccc2)s1 (single isomer, unassigned) [Example 61.1, 2-(N-(4-amino-5-benzoyl-thiazol-2-yl)-4-fluoro-anilino)propanamide]
5170 nM	Cc1ccc(C(=O)c2sc(N(c3ccc(F)cc3)C(C)C(N)=O)nc2N)cc1 (single isomer, unassigned) [Example 63.1, 2-(N-[4-amino-5-(4-methylbenzoyl)thiazol-2-yl]-4-fluoro-anilino)propanamide]
18.5 nM	Cc1ccc(C(=O)c2sc(N(c3ccc(F)cc3)C(C)C(N)=O)nc2N)cc1 (single isomer, unassigned) [Example 63.2, 2-(N-[4-amino-5-(4-methylbenzoyl)thiazol-2-yl]-4-fluoro-anilino)propanamide]
3720 nM	Cc1ccc(N(c2nc(N)c(C(=O)c3ccccc3)s2)C(C)C(N)=O)cc1 (single isomer, unassigned) [Example 73.1, 2-(N-(4-amino-5-benzoyl-thiazol-2-yl)-4-methyl-anilino)propanamide]
82.1 nM	Cc1ccc(N(c2nc(N)c(C(=O)c3ccccc3)s2)C(C)C(N)=O)cc1 (single isomer, unassigned) [Example 73.2, 2-(N-(4-amino-5-benzoyl-thiazol-2-yl)-4-methyl-anilino)propanamide]
17100 nM	CC(C(N)=O)N(c1cccc(F)c1)c1nc(N)c(C(=O)c2ccccc2)s1 (single isomer, unassigned) [Example 74.1, 2-(N-(4-amino-5-benzoyl-thiazol-2-yl)-3-fluoro-anilino)propanamide]
> 20000 nM	CC(C(N)=O)N(c1nc(N)c(C(=O)c2ccccc2)s1)c1ccccc1F (single isomer, unassigned) [Example 75.1, 2-(N-(4-amino-5-benzoyl-thiazol-2-yl)-2-fluoro-anilino)propanamide]
114 nM	Cc1cccc(N(c2nc(N)c(C(=O)c3ccccc3)s2)C(C)C(N)=O)c1 (single isomer, unassigned) [Example 76.1, 2-(N-(4-amino-5-benzoyl-thiazol-2-yl)-3-methyl-anilino)propanamide]

IC50	SMILES
234 nM	Cc1ccccc1N(c1nc(N)c(C(=O)c2ccccc2)s1)C(C)C(N)=O (single isomer, unassigned) [Example 77.1, 2-(N-(4-amino-5-benzoyl-thiazol-2-yl)-2-methyl-anilino)propanamide]
10200 nM	Cc1ccccc1N(c1nc(N)c(C(=O)c2ccccc2)s1)C(C)C(N)=O (single isomer, unassigned) [Example 77.2, 2-(N-(4-amino-5-benzoyl-thiazol-2-yl)-2-methyl-anilino)propanamide]
> 20000 nM	CC(C(N)=O)N(c1cnn(C)c1)c1nc(N)c(C(=O)c2ccccc2)s1 (single isomer, unassigned) [Example 78.1, 2-[(4-amino-5-benzoyl-thiazol-2-yl)-(1-methylpyrazol-4-yl)amino]propanamide]
7550 nM	CC(C(N)=O)N(c1cnn(C)c1)c1nc(N)c(C(=O)c2ccccc2)s1 (single isomer, unassigned) [Example 78.2, 2-[(4-amino-5-benzoyl-thiazol-2-yl)-(1-methylpyrazol-4-yl)amino]propanamide]
1660 nM	CC(C(N)=O)N(c1cccnc1)c1nc(N)c(C(=O)c2ccccc2)s1 (single isomer, unassigned) [Example 79.1, 2-[(4-amino-5-benzoyl-thiazol-2-yl)-(3-pyridyl)amino]propanamide]
2390 nM	CC(C(N)=O)N(c1cccnc1)c1nc(N)c(C(=O)c2ccccc2)s1 (single isomer, unassigned) [Example 79.2, 2-[(4-amino-5-benzoyl-thiazol-2-yl)-(3-pyridyl)amino]propanamide]
14.5 nM	CC(C(N)=O)N(c1ccc(F)cc1)c1nc(N)c(C(=O)c2ccc(OCC(=O)NC34CC5CC(CC(C5)C3)C4)cc2)s1 (single isomer, unassigned) [Example 142, 2-(N-[5-[4-[2-(1-adamantylamino)-2-oxo-ethoxy]benzoyl]-4-amino-thiazol-2-yl]-4-fluoro-anilino)propanamide]
8450 nM	CC(C(N)=O)N(c1ccc(F)c(Cl)c1)c1nc(N)c(C(=O)c2ccncc2)s1 (single isomer, unassigned) [Example 160.2, 2-(N-[4-amino-5-(pyridine-4-carbonyl)thiazol-2-yl]-3-chloro-4-fluoro-anilino)propanamide]
9 nM	COc1ccc(C(=O)c2sc(N(c3ccc(F)c(Cl)c3)C(C)C(N)=O)nc2N)cc1 (single isomer, unassigned) [Example 161.1, 2-(N-[4-amino-5-(4-methoxybenzoyl)thiazol-2-yl]-3-chloro-4-fluoro-anilino)propanamide]
2570 nM	COc1ccc(C(=O)c2sc(N(c3ccc(F)c(Cl)c3)C(C)C(N)=O)nc2N)cc1 (single isomer, unassigned) [Example 161.2, 2-(N-[4-amino-5-(4-methoxybenzoyl)thiazol-2-yl]-3-chloro-4-fluoro-anilino)propanamide]
12 nM	CC(C(N)=O)N(c1ccc(F)cc1)c1nc(N)c(C(=O)c2ccc(OC(F)F)nc2)s1 (single isomer, unassigned) [Example 162.1, 2-(N-[4-amino-5-[6-(difluoromethoxy)pyridine-3-carbonyl]thiazol-2-yl]-4-fluoro-anilino)propanamide]
6570 nM	CC(C(N)=O)N(c1ccc(F)cc1)c1nc(N)c(C(=O)c2ccc(OC(F)F)nc2)s1 (single isomer, unassigned) [Example 162.2, 2-(N-[4-amino-5-[6-(difluoromethoxy)pyridine-3-carbonyl]thiazol-2-yl]-4-fluoro-anilino)propanamide]
1090 nM	CC(C(N)=O)N(c1ccc(F)c(F)c1)c1nc(N)c(C(=O)c2ccc(OC(F)F)nc2)s1 (single isomer, unassigned) [Example 163.2, 2-(N-[4-amino-5-[6-(difluoromethoxy)pyridine-3-carbonyl]thiazol-2-yl]-3,4-difluoro-anilino)propanamide]
5 nM	CC(C(N)=O)N(c1ccc(Cl)c(F)c1)c1nc(N)c(C(=O)c2ccc(OC(F)F)nc2)s1 (single isomer, unassigned) [Example 164.1, 2-(N-[4-amino-5-[6-(difluoromethoxy)pyridine-3-carbonyl]thiazol-2-yl]-4-chloro-3-fluoro-anilino)propanamide]
2 nM	CC(C(N)=O)N(c1ccc(F)c(F)c1)c1nc(N)c(C(=O)c2ccc(OCc3ccccc3)cc2)s1 (single isomer, unassigned) [Example 165.1, 2-(N-[4-amino-5-(4-benzyloxybenzoyl)thiazol-2-yl]-3,4-difluoro-anilino)propanamide]
331 nM	CC(C(N)=O)N(c1ccc(F)c(F)c1)c1nc(N)c(C(=O)c2ccc(OCc3ccccc3)cc2)s1 (single isomer, unassigned) [Example 165.2, 2-(N-[4-amino-5-(4-benzyloxybenzoyl)thiazol-2-yl]-3,4-difluoro-anilino)propanamide]
129 nM	CC(C(N)=O)N(c1ccc(Cl)c(F)c1)c1nc(N)c(C(=O)c2ccc(OCc3ccccc3)cc2)s1 (single isomer, unassigned) [Example 166.2, 2-(N-[4-amino-5-(4-benzyloxybenzoyl)thiazol-2-yl]-4-chloro-3-fluoro-anilino)propanamide]
